# How the values were obtained:
# ZAC^D116A/DH8A/H210A = molecular target: T1, ZAC^D116A/DH8A/H210A (Homo sapiens, UniProt Q401N2, A152T/D140A/D142A/H144A); experiment: TEVC in oocytes, Cluster 1 triple mutant; assay type: cell-based; conditions: pH 4.0
# T1 construct: expressed in transfected cells; host or cells: Xenopus oocytes injected with cRNA (pUNIV vector)
# Procedure: (§1) The recordings were performed at room temperature.
# (§2) Analysis of the data from the TEVC recordings were performed using Clampfit software version 10.5 (Molecular Devices, Crawley, UK) and GraphPad Prism version 7.0c (GraphPad Software, La Jolla, CA). Unless otherwise stated, the inward currents induced by agonists in oocytes were normalized to the maximal response elicited by a specific agonist (agonist Imax) on each oocyte. Concentration-response and concentration-inhibition curves were fitted in GraphPad Prism by nonlinear regression using the equation for sigmoidal dose-response with variable slope. Each data point represents the mean ± S.E.M. value of recordings performed on at least five oocytes in total from at least two different batches. […] The null hypothesis was rejected at P < 0.05, and the differences between the means were analyzed by Tukey’s multiple comparisons test.
# (§3) The putative involvement of candidate residues in Clusters 1, 2, 3 and 4 in Zn^2+ binding to ZAC was investigated in by an elaborate alanine mutagenesis scanning. […] The determined IpH 4.0 value was used in part as a control and in part to enable the distinction of ZAC mutants non-responsive to Zn^2+ due to elimination of their ability to bind the metal ion from those where the mutation had eliminated cell surface expression and/or disrupted overall functionality of the receptor complex. […]
# m5-HT3A/ZAC = molecular target: T2, m5-HT3A/ZAC (Mus musculus / Homo sapiens, UniProt P23979); experiment: TEVC in oocytes expressing m5-HT3A/ZAC chimera; assay type: cell-based; conditions: pH 4.5; n = 4
# T2 sequence (P23979 24-246): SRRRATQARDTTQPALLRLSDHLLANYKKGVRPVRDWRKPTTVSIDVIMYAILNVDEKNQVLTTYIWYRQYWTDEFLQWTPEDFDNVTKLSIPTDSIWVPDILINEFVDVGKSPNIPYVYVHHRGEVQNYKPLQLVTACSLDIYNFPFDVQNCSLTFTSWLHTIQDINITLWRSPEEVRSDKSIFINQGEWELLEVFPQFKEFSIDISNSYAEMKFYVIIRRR
# T2 sequence (Q401N2 231-412 partner): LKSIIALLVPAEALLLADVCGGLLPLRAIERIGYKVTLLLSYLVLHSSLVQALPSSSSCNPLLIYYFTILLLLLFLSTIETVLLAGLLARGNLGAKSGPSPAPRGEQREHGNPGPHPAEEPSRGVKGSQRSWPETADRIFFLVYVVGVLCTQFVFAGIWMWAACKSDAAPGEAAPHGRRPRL
# Excerpt: (§4) The construction of the ZAC-pUNIV plasmid (encoding for the human WT ZAC that contains a Thr in position 128) has been described previously. The m5-HT3A and hα1 GlyR cDNAs were subcloned from their original vectors into pUNIV (Addgene, Watertown, MA) using NheI and EcoRI as restriction enzymes. […] The C-terminus modifications in these four chimeras were introduced in their cDNAs in the same way. Point mutations were introduced in cDNAs by use of the QuikChange mutagenesis kit (Stratagene, San Diego, CA). The validity and absence of unwanted mutations in the constructed cDNAs was verified by DNA sequencing (Macrogen Europe, Amsterdam, The Netherlands).
# (§5) All cDNAs used for cRNA synthesis were inserted in the pUNIV vector. The cDNAs were linearized and subsequently transcribed and capped using the mMessage mMachine T7 RNA transcription kit (Ambion, Waltham, MA). […] Oocytes were incubated in a sterile modified Barth’s solution [88 mM NaCl, 1 mM KCl, 15 mM HEPES (pH 7.5), 2.4 mM NaHCO3, 0.41 mM CaCl2, 0.82 mM MgSO4, 0.3 mM Ca(NO3)2, 100 U/ml penicillin and 100 μg/ml streptomycin] at 16–18 °C. Based on experience gained with WT ZAC in a recent study, all TEVC recordings were performed two days after cRNA injection.
# (§6) On the day of the TEVC recording, all compound dilutions were prepared in a saline solution [115 mM NaCl, 2.5 mM KCl, 10 mM MOPS (pH 7.5), 1.8 mM CaCl2, 0.1 mM MgCl2], and pH was adjusted to 7.5 (if needed). Oocytes were placed in a recording chamber continuously perfused with this saline solution, and the compounds were applied in the perfusate. Both voltage and current electrodes were agar-plugged with 3 M KCl with a resistance of 0.2–2.0 MΩ. Oocytes were voltage-clamped at −50 mV (except in the studies of the chimeras and their parent receptors where they were clamped at −60 mV, section 3.1), by a Gene Clamp 500B amplifier, and current signals were digitized by a Digidata 1322A (both from Axon Instruments, Union City, CA). Currents were recorded using pCLAMP 10 (Molecular Devices, Sunnyvale, CA). The recordings were performed at room temperature.
# (§7) In all recordings, compounds or compound combinations were applied in the bath until the peak current decayed to a steady state (up to 30 s). […] The antagonist properties of compounds were determined by pre-application of the compound to the perfusate for 30 s followed by co-application of the compound and the agonist. In all recordings, washes of 1–5 min were executed between the ligand applications, the length of the washes depending on the agonist concentrations used and on the return to baseline current amplitude.
# (§8) Analysis of the data from the TEVC recordings were performed using Clampfit software version 10.5 (Molecular Devices, Crawley, UK) and GraphPad Prism version 7.0c (GraphPad Software, La Jolla, CA). Unless otherwise stated, the inward currents induced by agonists in oocytes were normalized to the maximal response elicited by a specific agonist (agonist Imax) on each oocyte. Concentration-response and concentration-inhibition curves were fitted in GraphPad Prism by nonlinear regression using the equation for sigmoidal dose-response with variable slope. Each data point represents the mean ± S.E.M. value of recordings performed on at least five oocytes in total from at least two different batches. For the data where statistical analysis was performed, a one-way ANOVA was used. The null hypothesis was rejected at P < 0.05, and the differences between the means were analyzed by Tukey’s multiple comparisons test.
# ZAC/hα1-Gly = experiment: TEVC in oocytes expressing ZAC/hα1-Gly chimera; assay type: cell-based, human
# Procedure: as §1, §8
# (§9) Initially, we constructed four chimeric subunits fusing the ZAC ECD or TMD-ICD with the complementary domains from either the m5-HT3A or the hα1 GlyR subunit: ZAC/m5-HT3A, m5-HT3A/ZAC, ZAC/hα1-Gly and hα1-Gly/ZAC (Fig. 1A). […] (Fig. 1A).
# hα1-Gly/ZAC = experiment: TEVC in oocytes expressing hα1-Gly/ZAC chimera; assay type: cell-based, human; conditions: pH 4.5; n = 5
# Procedure: as §1, §8, §9
# [1] = molecular target: T3, ZAC^E24A/E89A/D105A/D108A/E130A (Homo sapiens, UniProt Q401N2, A152T/D129A/D132A/E113A/E154A/E48A); experiment: TEVC in oocytes, Cluster 3 quintuple mutant; assay type: cell-based; conditions: H^+ pH 4.0; Zn^2+ 10 mM; data not shown
# T3 construct: expressed in transfected cells; host or cells: Xenopus oocytes injected with cRNA (pUNIV vector)
# Procedure: as §1, §2, §3
# ZAC/m5-HT3A = experiment: TEVC in oocytes expressing ZAC/m5-HT3A chimera; assay type: cell-based, mouse/human; conditions: pH 4.5; n = 5
# Procedure: as §1, §8, §9
# ZAC/m5-HT3A-II = experiment: TEVC in oocytes expressing ZAC/m5-HT3A-II chimera; assay type: cell-based, mouse/human; conditions: Zn^2+ 10 mM; H^+ pH 4.0; data not shown
# Procedure: as §1
# ZAC^H210A = molecular target: T4, ZAC^H210A (Homo sapiens, UniProt Q401N2, A152T/H144A); experiment: TEVC in oocytes, His120 Ala mutant; assay type: cell-based; conditions: pH 4.0
# T4 construct: expressed in transfected cells; host or cells: Xenopus oocytes injected with cRNA (pUNIV vector)
# Procedure: as §1, §2, §3
# [2] = molecular target: T5, ZAC^E136A/H139A/D143A/H144A (Homo sapiens, UniProt Q401N2, A152T/D167A/E160A/H163A/H168A); experiment: TEVC in oocytes, Cluster 2 quadruple mutant; assay type: cell-based; conditions: Zn^2+ 10 mM; H^+ pH 4.0; data not shown
# T5 construct: expressed in transfected cells; host or cells: Xenopus oocytes injected with cRNA (pUNIV vector)
# Procedure: as §1, §2, §3
# WT hα1 GlyR = molecular target: T6, WT hα1 GlyR (Homo sapiens, UniProt P23415); assay type: cell-based
# T6 construct: expressed in transfected cells; host or cells: Xenopus oocytes injected with cRNA (pUNIV vector)
# T6 sequence (P23415 29-457): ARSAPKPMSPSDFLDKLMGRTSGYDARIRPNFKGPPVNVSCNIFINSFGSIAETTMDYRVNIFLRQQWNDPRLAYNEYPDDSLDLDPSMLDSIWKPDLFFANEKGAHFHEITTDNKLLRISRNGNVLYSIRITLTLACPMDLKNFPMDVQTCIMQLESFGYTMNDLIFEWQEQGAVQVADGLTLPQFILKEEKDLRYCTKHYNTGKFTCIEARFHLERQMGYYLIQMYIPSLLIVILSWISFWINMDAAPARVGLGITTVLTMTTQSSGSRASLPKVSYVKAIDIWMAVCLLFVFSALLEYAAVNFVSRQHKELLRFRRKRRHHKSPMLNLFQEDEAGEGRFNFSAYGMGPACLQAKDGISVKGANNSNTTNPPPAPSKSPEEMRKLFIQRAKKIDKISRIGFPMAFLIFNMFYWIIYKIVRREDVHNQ
# Excerpt: as §4, §5, §6, §7, §2
# WT ZAC = molecular target: T7, WT ZAC (Homo sapiens, UniProt Q401N2, A152T); experiment: TEVC in Xenopus oocytes expressing WT ZAC; assay type: cell-based; conditions: PTX at concentrations up to 100 μM; Zn^2+ 1 mM
# T7 construct: expressed in transfected cells; host or cells: Xenopus oocytes injected with cRNA (pUNIV vector)
# T7 sequence (Q401N2 26-412 A152T): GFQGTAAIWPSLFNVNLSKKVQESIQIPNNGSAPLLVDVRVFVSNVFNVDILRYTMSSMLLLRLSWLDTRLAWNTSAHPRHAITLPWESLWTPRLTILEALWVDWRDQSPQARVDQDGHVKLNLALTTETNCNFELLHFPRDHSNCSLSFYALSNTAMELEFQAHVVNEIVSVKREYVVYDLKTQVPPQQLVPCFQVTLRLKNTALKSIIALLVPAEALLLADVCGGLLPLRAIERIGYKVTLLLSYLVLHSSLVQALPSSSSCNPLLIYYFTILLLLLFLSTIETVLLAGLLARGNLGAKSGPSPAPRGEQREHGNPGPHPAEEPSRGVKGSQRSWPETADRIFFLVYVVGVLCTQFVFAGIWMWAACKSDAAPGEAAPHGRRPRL
# Procedure: as §1, §8
# T1 sequence (Q401N2 26-412 D140A/D142A/H144A/A152T): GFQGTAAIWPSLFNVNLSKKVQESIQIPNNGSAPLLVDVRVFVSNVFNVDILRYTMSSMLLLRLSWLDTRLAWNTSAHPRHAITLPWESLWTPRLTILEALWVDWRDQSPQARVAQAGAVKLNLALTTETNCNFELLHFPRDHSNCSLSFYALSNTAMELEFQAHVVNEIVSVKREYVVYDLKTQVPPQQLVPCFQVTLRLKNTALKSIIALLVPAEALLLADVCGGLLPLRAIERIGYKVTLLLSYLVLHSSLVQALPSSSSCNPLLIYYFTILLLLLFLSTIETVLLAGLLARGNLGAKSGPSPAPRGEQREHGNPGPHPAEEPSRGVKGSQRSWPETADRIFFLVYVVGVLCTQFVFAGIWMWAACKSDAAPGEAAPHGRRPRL
# T4 sequence (Q401N2 26-412 H144A/A152T): as the sequence (Q401N2 26-412 D140A/D142A/H144A/A152T) above, with A115D, A117D counted along it
# T5 sequence (Q401N2 26-412 A152T/E160A/H163A/D167A/H168A): as the sequence (Q401N2 26-412 D140A/D142A/H144A/A152T) above, with A115D, A117D, A119H, E135A, H138A, D142A, H143A counted along it
# T3 sequence (Q401N2 26-412 E48A/E113A/D129A/D132A/A152T/E154A): as the sequence (Q401N2 26-412 D140A/D142A/H144A/A152T) above, with E23A, E88A, D104A, D107A, A115D, A117D, A119H, E129A counted along it
Molecule,IpH 4.0 range (ZAC^D116A/DH8A/H210A),IpH 4.5 ± S.E.M. (m5-HT3A/ZAC),agonist-evoked current (ZAC/hα1-Gly; pH 4.5),IpH 4.5 ± S.E.M. (hα1-Gly/ZAC),agonist responsiveness [1],IpH 4.5 ± S.E.M. (ZAC/m5-HT3A),agonist-evoked current (ZAC/m5-HT3A-II),IpH 4.0 (ZAC^H210A),agonist responsiveness [2],current during 30-s preincubation of antagonist (ZAC/hα1-Gly; PTX preincubation),"IC50 (ZAC/hα1-Gly; inhibition of Zn^2+ EC90 (10 μM)-induced currents, read-out: estimated IC50)",current during 30-s preincubation of antagonist (WT hα1 GlyR; PTX preincubation),"IC50 (WT hα1 GlyR; inhibition of Gly EC90 (100 μM)-elicited responses, read-out: estimated IC50)",inhibition of Zn^2+ EC90-mediated signalling (WT ZAC)
[H+] [H^+],40–100 nA,−0.0027 ± 0.0007 μA,robust currents,−0.0045 ± 0.0019 μA,non-responsive,−0.0033 ± 0.0003 μA,did not evoke significant currents,30–110 nA,non-responsive,,,,,
picrotoxin [PTX],,,,,,,,,,substantial outward currents,> 1000 nM,no such outward currents,< 1000 nM,did not inhibit

# — publication PMC11359809, “Probing the molecular basis for signal transduction through the Zinc-Activated Channel (ZAC)” (Biochemical pharmacology, 2021)
